Measured values published in US20220117938A1, “COMBINATON THERAPY WITH A DON PRODRUG AND AN IMMUNE CHECKPOINT INHIBITOR” (DRACEN PHARMACEUTICALS, INC., priority 2019, published 2022).

Tested on: Ninety four (94) cell lines and PBMC
Test: Cell viability assay, SRB staining, 94 cell lines and PBMC (Example 7, Experiment 2)
Type: cell-based
Protocol: Ninety four (94) cell lines were seeded at a density varying from 500 to 7000 cells/well depending on their growth characteristics. PBMC were seeded at the density 50,000-100,000 cells/well. Cells were incubated for 48 h prior to compound treatment. Compound 1 and DON were evaluated at a concertation range of 1 nM up to 100 μM. Compound 1 dilutions in DMSO and DON dilutions in PBS were performed in 96-well 0.5 mL plates (Greiner Bio-One, Germany). Compounds were then diluted 1:100 in RPMI medium. […] of cells were treated by mixing with 10 μL of the compound-containing media (resulting in a final DMSO concentration of 0.1%). The cells were allowed to grow at 37° C. for 120 h. Cells were fixed to the surface by addition of 10% TCA (for adherent growing cells) or 50% TCA (for semi-adherent growing cells or cells growing in suspension). After an hour of incubation at 4° C., plates were washed twice with 400 μL of deionized water and dried. Cells were then stained with 100 μL of 0.04% wt/v SRB. The plates were incubated at room temperature for at least 30 min and washed six times with 1% acetic acid to remove unbound stain. The plates were left to dry at room temperature and bound SRB was solubilized with 100 μL of 10 mM Tris base. Optical density was measured at 492, 520 and 560 nm using a Deelux-LED96 plate reader (Deelux Labortechnik GmbH, Germany).
Cell lines were purchased directly from the ATCC, NCI, CLS, and DSMZ cell line collections. A master bank and working aliquots were prepared. Cells used for the study had undergone less than 20 passages. To rule out potential contamination or wrong assignment, all cell lines were tested by STR analysis. Absence of mycoplasma contamination was confirmed for all cell lines used in the studies.
The cell lines were grown in the media recommended by the suppliers in the presence of 100 U/mL penicillin and 100 μg/mL streptomycin supplied with 10% FCS (PAA, Germany). RPMI 1640, DMEM, and MEM Earle's medium were from PAA (Coelbe, Germany), supplements 2 mM L-glutamine, 1 mM Na-pyruvate and 1% NEAA were from PAA (Coelbe, Germany), 2.5% horse serum, hydrocortisone, transferin, beta-estradiol, selenite and 1 U/mL insulin from Sigma-Aldrich (Munich, Germany). RPMI medium was used for culturing the following cell lines: 5637, 22RV1, 7860, A2780, A431, A549, ACHN, ASPC1, BT20, BXPC3, CAKI1, CLS439, COLO205, COLO678, DLD1, DU145, EFO21, EJ28, HCT15, HS578T, IGROV1, JAR, LOVO, MCF7, MDA MB231, MDA MB435, MDA MB436, MDA MB468, MHHES1, MT3, NCI H292, NCI H358M, NCI H460, NCIH82, OVCAR3, OVCAR4, PANC 1005 (addition of insulin), PBMC, PC3, RDES, SF268, SF295, SKBR3, SK MEL28, SKMEL5, SKOV3, SW620, U2OS, UMUC3, and U031.
DMEM medium was used to culture A204, A375, A673, C33A, CASKI, HCT116, HEPG2, HS729, HT29, J82, MG63, MIAPACA2 (addition of horse serum), PANC1, PLCPRF5, RD, SAOS2, SKLMS1, SKNAS, SNB75, T24, and TE671.
MEM Earle's medium was used for CACO2, CALU6, HEK293, HELA, HT1080, IMR90, JEG3, JIMT1, SKHEP1, SKNSH, and U87MG. Cell seeding conditions were optimized for each cell line. The cell seeding density varied from 500 to 7000 cells/well depending on their growth characteristics. Peripheral blood mononuclear cells (PBMC) were freshly isolated from whole blood of an anonymous donor through density gradient centrifugation using Ficoll solution (d=1.077). In short, blood was diluted 1:1 with PBS and carefully placed on the Ficoll. After centrifugation 1000×g for 15 min (braking rate 0), the ring containing mainly leucocytes was collected in PBS followed by three times washing with PBS to reduce the platelets. PBMC were seeded at the density 50,000-100,000 cells/well. Cells were grown in 5% CO2 atmosphere in a NB-203XXL incubator (N-BIOTEK Inc., Korea).
Ninety-four cell lines were tested in parallel. Cell growth and treatment were performed in 96 well microtitre plates CELLSTAR® (Greiner Bio-One, Germany). […]

[1] = Homo sapiens, 22Rv1, 22RV1, prostate
[2] = Homo sapiens, 786-0, 786O, kidney
[3] = Homo sapiens, A204, A204, muscle
[4] = Homo sapiens, A673, A673, muscle
[5] = Homo sapiens, A2780, A2780, ovary
[6] = Homo sapiens, A-375, A375, skin
[7] = Homo sapiens, A-431, A431, skin
[8] = Homo sapiens, ASPC1, ASPC1, pancreas
[9] = Homo sapiens, BT-20, BT20, breast
[10] = Homo sapiens, C-33-A, C33A, endometrial
[11] = Homo sapiens, CAKI-1, CAKI1, kidney
[12] = Homo sapiens, COLO 205, COLO205, colon
[13] = Homo sapiens, COLO-678, COLO678, colon
[14] = Homo sapiens, Ca-Ski, CASKI, endometrial
[15] = Homo sapiens, Caco-2, CACO2, colon
[16] = Homo sapiens, Calu-6, CALU6, lung
[17] = Homo sapiens, DLD-1, DLD1, colon
[18] = Homo sapiens, DU-145, DU145, prostate
[19] = Homo sapiens, EFO-21, EFO21, ovary
[20] = Homo sapiens, EJ-28, EJ28, bladder
[21] = Homo sapiens, Granta-519, GRANTA-519, hematological
[22] = Homo sapiens, HCT-15, HCT15, colon
[23] = Homo sapiens, HCT-116, HCT116, colon
[24] = Homo sapiens, HEK293, HEK293, kidney
[25] = Homo sapiens, HL-60, HL-60, hematological
[26] = Homo sapiens, HT-29, HT29, colon
[27] = Homo sapiens, HT-1080, HT1080, connective tissue
[28] = Homo sapiens, HeLa, endometrial
[29] = Homo sapiens, HepG2, HEPG2, liver
[30] = Homo sapiens, IGROV-1, IGROV1, ovary
[31] = Homo sapiens, JEG-3, JEG3, placenta
[32] = Homo sapiens, JIMT-1, JIMT1, breast
[33] = Homo sapiens, K562, K-562, hematological
[34] = Homo sapiens, Kasumi 1, KASUMI-1, hematological
[35] = Homo sapiens, L-363, L-363, hematological
[36] = Homo sapiens, MCF7, MCF7, breast
[37] = Homo sapiens, MDA-MB-231, MDAMB231, breast
[38] = Homo sapiens, MDA-MB-435, MDAMB435, skin

Structure (SMILES): [N-]=[N+]=CC(=O)CC[C@H](N)C(=O)O [DON, 6-Diazo-5-oxo-L-norleucine, reference compound]
- IC50 (5637, bladder): 0.881 µM
- IC50 (CLS439, bladder): 7.82 µM
- GI50 [1]: 0.981 µM
- IC50 [1]: 1.04 µM
- GI50 [2]: 2.39 µM
- IC50 [2]: 2.93 µM
- GI50 [3]: 4.99 µM
- IC50 [3]: 17 µM
- GI50 (Homo sapiens, A549, A549, lung): 4.05 µM
- IC50 (Homo sapiens, A549, A549, lung): 4.49 µM
- GI50 [4]: 1.95 µM
- IC50 [4]: 2.2 µM
- GI50 [5]: 3.65 µM
- IC50 [5]: 3.9 µM
- GI50 [6]: 3.15 µM
- IC50 [6]: 3.33 µM
- GI50 [7]: 6.5 µM
- IC50 [7]: 8.52 µM
- GI50 (Homo sapiens, ACHN, kidney): 5.34 µM
- IC50 (Homo sapiens, ACHN, kidney): 6.34 µM
- GI50 [8]: 3.92 µM
- IC50 [8]: 5.58 µM
- GI50 [9]: 16.8 µM
- IC50 [9]: 51.1 µM
- GI50 (Homo sapiens, BXPC-3, BXPC3, pancreas): 1.45 µM
- GI50 [10]: 6.48 µM
- IC50 [10]: 7.04 µM
- GI50 [11]: 1.16 µM
- IC50 [11]: 1.62 µM
- GI50 [12]: 1.32 µM
- IC50 [12]: 2.01 µM
- GI50 [13]: 58.9 µM
- IC50 [13]: 152 µM
- GI50 [14]: 5.49 µM
- IC50 [14]: 6.51 µM
- GI50 [15]: 11.2 µM
- IC50 [15]: 18.6 µM
- GI50 [16]: 6.05 µM
- IC50 [16]: 6.97 µM
- GI50 [17]: 0.906 µM
- IC50 [17]: 1.02 µM
- GI50 [18]: 5.24 µM
- IC50 [18]: 6.16 µM
- GI50 [19]: 6.32 µM
- IC50 [19]: 14.6 µM
- GI50 [20]: 4.19 µM
- IC50 [20]: 4.89 µM
- GI50 [21]: 0.779 µM
- IC50 [21]: 0.812 µM
- GI50 [22]: 1.13 µM
- IC50 [22]: 1.3 µM
- GI50 [23]: 2.06 µM
- IC50 [23]: 2.1 µM
- GI50 [24]: 10.6 µM
- IC50 [24]: 15.2 µM
- GI50 [25]: 1.56 µM
- IC50 [25]: 1.6 µM
- GI50 [26]: 2.89 µM
- IC50 [26]: 3.41 µM
- GI50 [27]: 0.666 µM
- IC50 [27]: 0.795 µM
- GI50 [28]: 8.17 µM
- IC50 [28]: 9.13 µM
- GI50 [29]: 7.3 µM
- IC50 [29]: 8.97 µM
- GI50 (Homo sapiens, Hs-578T, HS578T, breast): 25.1 µM
- GI50 [30]: 6.99 µM
- IC50 [30]: 10.1 µM
- GI50 (Homo sapiens, IMR-90, IMR90, lung): 11.8 µM
- GI50 [31]: 5.79 µM
- IC50 [31]: 6.64 µM
- GI50 [32]: 11.2 µM
- IC50 [32]: 26.8 µM
- GI50 [33]: 1.06 µM
- IC50 [33]: 1.17 µM
- GI50 [34]: 5.17 µM
- IC50 [34]: 12.7 µM
- GI50 [35]: 0.343 µM
- IC50 [35]: 0.522 µM
- GI50 (Homo sapiens, LoVo, colon): 4.36 µM
- IC50 (Homo sapiens, LoVo, colon): 4.66 µM
- GI50 [36]: 2.09 µM
- IC50 [36]: 6.07 µM
- GI50 [37]: 8.37 µM
- IC50 [37]: 13.8 µM
- GI50 [38]: 2.48 µM
- IC50 [38]: 2.66 µM
- GI50 (Homo sapiens, MDA-MB-436, MDAMB436, breast): 13.3 µM
